Measured values reported in patent US20120064102A1, “PEPTIDE INDUCING XAGE-1B-SPECIFIC IMMUNE REACTION AND UTILIZATION OF SAME” (NATIONAL UNIVERSITY CORPORATION OKAYAMA UNIVERSITY, priority 2009, published 2012).

Columns and labels:
U937 = test: intake of FAM-conjugated NY-ESO-1 f peptide into antigen-presenting cell; type: cell-based, human; settings: 3 hours after the start of culturing; U937 primed with 20 ng/ml PMA
Protocol: Initially, the inventors of the present invention analyzed the point (A). Specifically, U937, which is a human monocytic leukemia strain, was subjected to priming using 20 ng/ml of PMA, and then cultured with NY-ESO-1 f peptide conjugated with FAM™. Localization of NY-ESO-1 f peptide in U937 was confirmed by observing fluorescence of FAM™ which is a fluorescent pigment.
FIG. 27 is a view illustrating that NY-ESO-1 f peptide was taken into an antigen-presenting cell (U937).

[1] = system: NY-ESO-1-specific CD4-positive T cell clones (E-8A1); test: antigen presentation by MHC class II (IFN-γ ELISA); type: cell-based, human
Protocol: Specifically, NY-ESO-1-specific CD4-positive T cell clones (E-8A1) were subjected to IFN-γ ELISA by use of self-EBV-B cells as antigen-presenting cells, in the presence of peptide NY-ESO-1 f peptide at a temperature condition of 4° C. or 37° C.
“E/T ratio” of the horizontal axis of FIG. 28 indicates a ratio of co-culturing between Effector (T cell) and Target (EBV-B cell).

[2] = system: CD8-positive T cell clones (TK-f01 2H10); test: antigen presentation by MHC class I, cross-presentation (IFN-γ ELISA); type: cell-based, human
Protocol: Further, it was confirmed that NY-ESO-1 f peptide is presented as an antigen also by MHC class I, i.e., cross-presented (FIG. 29). Specifically, in a non-serum AIM-V culture medium containing 1 μM of NY-ESO-192-100 short-chain peptide, 1 μM of NY-ESO-191-110 f peptide or 10 μg/ml of recombinant protein, dendritic cells (5×10^5 cells/ml) were cultured and pulsed with antigen, in the presence/absence of 10 μM of cytochalasin B. The cells were washed and then CD8-positive T cell clones (TK-f01 2H10) (5×10^3 cells) were cultured at 37° C. for 24 hours with the dendritic cells (5×10^3 cells) pulsed with the antigens. The amount of production of IFN-γ by antigen stimulation was measured by ELISA.

[3] = system: HLA-B*3501-restricted CD8-positive T cell clones (8C187-4); test: IFN-γ ELISA with CD8-positive T cell clones 8C187-4; type: cell-based, human; settings: clone 8C187-4
Description: FIG. 19 is a view showing that peptide 21-36 is a peptide recognized by T cell clones (8C187-4).
As shown in (c) of FIG. 19, when CD8-positive T cell clones (8C187-4) obtained from KLU 187 were stimulated with EBV-B cells expressing HLA-B*3501 as antigen-presenting cells, production of XAGE-1b-specific IFN-γ were detected.

[4] = system: XAGE-1b-specific IgG antibody; test: ELISA of XAGE-1b-specific IgG antibody in serums; type: binding, human
Protocol: Full-length XAGE-1b protein (carbonic acid buffer, pH 9.6) with a concentration of 1 μg/ml was immobilized overnight on a 96 well plate (NUNC) at 4° C., and then the plate was washed with a washing solution (PBS/0.1% TWEEN). To the washed plate, 5 FCS/PBS was added and the plate was subjected to blocking at 37° C. for 1 hour. After the blocking, serum diluted 100 times, 300 times, 900 times, or 2700 times was added and the resultant was caused to react at 37° C. for 2 hours. Subsequently, the resultant was washed with the washing solution, and then peroxidase-binding goat anti-human IgG antibody (diluted 5000 times) (Jackson ImmunoResearch Laboratories, Inc.) was added to the resultant and this mixture was caused to react at 37° C. for 1 hour. After the reaction, the resultant was washed with the washing solution and a substrate solution to which hydrogen peroxide was added (solution obtained by dissolving orthophenylendiamine in 0.05M citric acid buffer (pH 5.0)) was added to stain the resultant. After the staining, 6N sulfuric acid was added to stop the reaction, and absorbance (wavelength of 490 nm) thereof was measured using a microplate reader (Bio-Rad Laboratories, Inc.).
Whether or not humoral immune responses to XAGE-1b were present were examined for 200 cases of subjects suffering from non-small-cell lung cancer (including 69 cases of subjects suffering from lung adenocarcinoma in the late stage) who had consulted Kawasaki Medical School Hospital from 2005 to 2009, and for 50 cases of normal healthy subjects serving as controls.
Specifically, whether or not XAGE-1b-specific IgG antibody was present in serums sampled from lung cancer patients was examined by ELISA.
Among them, the lung cancer patients of the very-strong zone, the strong zone, and the weak zone were regarded as serum antibody titer-positive patients.

[5] = system: XAGE-1b-specific CD4-positive T cells (4C187-1); test: natural epitope recognition by CD4 clone T-cells 4C187-1; type: cell-based, human; settings: clone 4C187-1

Molecule	intake into antigen-presenting cells (U937)	effect of low temperature on reaction ([1]; low temperature (4° C.) blocks intake)	antigen presentation by MHC class II ([1]; self-EBV-B cells as antigen-presenting cells, 4° C. or 37° C.)	effect of cytochalasin B on reaction ([2]; 10 μM of cytochalasin B)	antigen presentation by MHC class I ([2]; dendritic cells pulsed with 1 μM peptide)	reaction on stimulation with self-dendritic cells pulsed with antigen [3]	antibody reaction to XAGE-1b ([4]; 50 cases of normal healthy subjects)	XAGE-1b serum antibody titer-positive cases ([4]; Non-small-cell lung cancer (n = 200))	XAGE-1b serum antibody titer-positive cases ([4]; Stage 3B/4 lung adenocarcinoma (n = 69))	reaction on stimulation with self-dendritic cells pulsed with antigen [5]
NY-ESO-1 f peptide: long-chain peptide made up of 20 amino acids of NY-ESO-1 (YLAMPFATPMEAELARRSLA)	taken into the cells	decrease in a reaction to CD4-positive T cells	presented as an antigen by MHC class II	decrease in a reaction to CD8-positive T cells	presented as an antigen by MHC class I					
XAGE-1b protein: XAGE-1b protein (81 amino acids, SEQ ID. No. 1) synthesized by GL Biochem; cancer/testis antigen (protein, listed as Homo sapiens) MESPKKKNQQLKVGILHLGSRQKKIRIQLRSQCATWKVICKSCISQTPGINLDLGSGVKVKIIPKEEHCKMPEAGEEQPQV						production of antigen-specific IFN-γ	no antibody reaction to XAGE-1b was observed	20 (10.0%) n (%)	13 (18.8%) n (%)	production of antigen-specific IFN-γ
